The nature of data set [1]: Anaerobic Cu(I) titration in competition with bicinchoninic acid (BCA). Format: binding. The method, then:
Freeze-dried synthetic PLS peptide (Cambridge Research Biochemicals) was dissolved in DMSO. An aliquot was added to aqueous buffer (10 mM HEPES [pH 7], 20 mM NaCl, 80 mM KCl), and absorbance was recorded at 280 nm. PLS concentration was estimated from the absorbance and the ProtParam estimated extinction coefficient of 2980 M^−1 cm^−1. Concurrently, a sample was submitted for quantitative amino acid analysis (Abingdon Health Laboratory Services). From this analysis, a conversion factor of 2.27 was generated, which was applied to the concentrations determined by A280 nm.
A fusion of PLS to MBP was created using the NEBExpress MBP Fusion and Purification System. Two complementary oligonucleotide primers encoding PLS (optimized for expression in E. coli) were annealed and inserted into the pMal-c5x plasmid at the XmnI and SalI insertion sites. The three mutants MBP:PLS(C6S), MBP:PLS(C17S), and MBP:PLS(C6S/C17S) were created by site-directed mutagenesis (QuikChange II, Agilent). E. coli NEB Express containing the pMal plasmid with the correct MBP:PLS mutant was used to overexpress each protein. Harvested cells were resuspended in 20 mM Tris–HCl (pH 7.4), 200 mM NaCl, and 1 mM EDTA, then frozen at −20°C overnight. Cells were defrosted in cold H2O, sonicated, purified by ammonium sulfate precipitation (where MBP-PLS precipitates >60% saturation), separated on an MBP-Trap column (GE Healthcare), and eluted using buffer containing 10 mM maltose. MBP:PLS-containing fractions were pooled and concentrated using a centrifugal concentrator (Corning, Spin-X UF 30 kDa) and buffer exchanged by desalting column into a metal-free buffer of 20 mM HEPES (pH 7.0) and 50 mM NaCl in an anaerobic chamber (Belle Technology). Mutants containing thiols were quantified using Ellman’s assay, and MBP:PLS(C6S/C17S), which lacks all thiols, was quantified using the Bradford assay alone. Samples were also analyzed for metal content by ICP–MS to ensure >95% apo-protein.
(§1) All Cu(I) titration experiments were carried out in an anaerobic chamber (Belle Technology) using metal-free CHELEX-treated, degassed buffers. For titration experiments with Cu(I), aqueous CuSO4 stock was quantified in advance by ICP–MS and diluted to working concentrations. The reductant NH2OH was included at a final concentration of 1 mM to maintain Cu(I) in its reduced state. Proteins were diluted in buffer to the final concentration specified in each titration in air-tight quartz cuvettes (Helma), and after addition of probe to the concentration specified, titrated with CuSO4. After each addition, solutions were thoroughly mixed and absorbance spectra recorded using a Lambda 35 UV/Vis spectrophotometer (PerkinElmer). Titration isotherm data were fitted using simulated affinity curves with DynaFit ([Kuzmič, 2009]).

In data set [2] the test system is Arabidopsis pls mutant seedlings (primary root length). In words: Hydroponic peptide feeding: rescue of short primary root of pls mutant. Format: in vivo, Arabidopsis thaliana. The protocol: (A) Amino acid sequence of the PLS peptide from Arabidopsis thaliana with the Camelina sativa PLS sequence and the synthetic truncations N1, N2, C1, and C2 indicated by horizontal lines. Two cysteine residues are highlighted in bold. (B) Effect of the synthetic Arabidopsis PLS full-length peptide, A. thaliana PLS(FL), and the Camelina PLS peptide (C. sativa PLS) on Arabidopsis primary root length. Wild-type (C24; blue bars) and pls mutant seedlings (orange bars) were grown hydroponically in the presence (100 nM) or absence of peptide for 10 days. ∗∗∗P < 0.05, t-test between C24 and pls. Error bars show ±1 standard error of the mean, n = 20. (C) Effect of synthetic full-length and truncated peptides on primary root length of wild-type (blue bars) and pls mutant (orange bars) Arabidopsis. Seedlings were grown hydroponically in the presence of 50 nM peptide for 10 days. C1, C-terminal 14 amino acids; C2, C-terminal 24 amino acids; N1, N-terminal 22 amino acids; N2, N-terminal 9 amino acids; full-length PLS, 36 amino acids. Error bars show ±1 standard error of the mean, n = 25. ∗∗∗P < 0.05, t-test between C24 and pls.
proPLS::PLS:GFP comprises a 1.5-kb PLS promoter sequence ([Casson et al., 2002]) fused to the PLS open reading frame in pMDC107 (obtained from Prof. P.J. Hussey, Durham University) as a C-terminal GFP translational fusion. The PLS ORF with its 1.5-kb promoter was amplified from the TOPO 2.1 vector, which contained the PLS gene sequence with promoter ([Casson et al., 2002]); the primers used for cloning are listed in supplemental Table 9. pls mutant plants were transformed using the method of [Clough and Bent (1998)]. proPLS::GFP plants were generated using the 1.5-kb PLS promoter ([Casson et al., 2002]) fused to GFP in a wild-type background. p35S::GFP seedlings were obtained from Dr. Piers Hemsley, Durham University. Seedlings of Arabidopsis thaliana ecotype C24 or Col-0, pls mutants, and transgenic PLS overexpressers, all from lab stocks, were grown on solid sterile half-strength (2.2 g/l) Murashige and Skoog medium (Sigma-Aldrich) containing 10 g/l sucrose (half-strength [½] MS10 medium) solidified with 2.5 g/l Phytagel (Sigma-Aldrich) in 90-mm Petri dishes (Sarstedt, Leicester, UK) at 21°C under a 16-h photoperiod as described previously ([Casson et al., 2002]; [Chilley et al., 2006]). N. benthamiana plants (lab stocks) were grown in a controlled environment (21°C, 16-h photoperiod) for transient expression studies in leaf tissue. For hydroponic feeding studies, Arabidopsis seedlings were cultured in liquid ½ MS10 medium (1 ml/well) in sterile 24-well plates (Sarstedt), essentially as described in [Matsuzaki et al. (2010]). For hormone and peptide assays, one seedling was grown in each well at 21°C under a 16-h photoperiod. For peptide feeding experiments, purified freeze-dried peptide was dissolved in DMSO to create a 500-μM stock solution. The peptide stock solution was added to liquid ½ MS10 medium containing 0.1% DMSO to obtain a final peptide concentration of 50 or 100 nM (or 10, 25, 50, and 100 nM for dose-dependent assays). For copper treatments, 1 mM CuSO4 solution was filter sterilized and added to autoclaved liquid ½ MS10 medium to obtain final CuSO4 concentrations of 0, 5, 10, 15, 20, 25, 30, 35, 40, 45, and 50 μM. Seedlings were scanned to create a digital image, and root lengths of the seedlings were measured using ImageJ. Statistical analysis was performed using Real Statistics Resource Pack software (release 3.8, www.real-statistics.com) in Excel (Microsoft) using data from at least 10 independently grown seedlings for root growth analysis; specific numbers are defined for each experiment.

Data set [3] can be described thus: Solubility during Cu(I) titration. Conditions: strictly anaerobic conditions. Format: physicochemical. The method, then:
as §1

[4] abbreviates: 44.8 μM synthetic PLS, 87 μM BCA, anaerobic.

Take “PLS(FL): full-length 36-amino-acid PLS peptide from Arabidopsis (MKPRLCFNFRRRSISPCYISISYLLVAKLFKLFKIH)”: in data set [1] (setting [4]), the “Cu(I) affinity relative to BCA” value is recorded as “tighter than that of BCA” and the “increase in Cu(I) concentration required to saturate BCA” value was around 20 µM. In addition, in data set [1] (synthetic peptide, mutant 40 μM, BCA 93.3 μM, mean ± SD, n = 3 (supplemental Figure 10)), the “withholding of Cu(I) from BCA” value is “withholds Cu(I) from BCA”. The “rescue of root growth of pls seedlings” value in data set [2] (50 nM peptide, hydroponic, 10 days, n = 25 (Figure 2C)) was “rescued root growth”. For the same substance, the “difference in rescue effects of PLS(FL) and PLS(N1), t-test P” value in data set [2] (50 nM, n = 25) was above 0.1. Besides, the “difference in rescue effects of PLS(FL) and PLS(N1)” value in data set [2] (50 nM, n = 25, t-test) is “did not differ significantly”. Besides, the “rescue of short primary root length of pls mutant” value in data set [2] (hydroponic, 10 days, 100 nM (Figure 2B) or 50 nM (Figure 2C)) is listed as “able to rescue the short primary root length”. The solubility result in data set [3] was “problems with PLS solubility”.

Values taken from PMC12744750 (Plant Communications, 2025).
